Results from ChEMBL document CHEMBL5131570, “Discovery of Potent Small-Molecule USP8 Inhibitors for the Treatment of Breast Cancer through Regulating ERα Expression” (J Med Chem, 2022).

How the values were obtained:
[1] = tested on: MCF7; experiment: Induction of apoptosis in human MCF7 cells assessed as increase in apoptotic cells at 5 uM incubated for 12 hrs by AnnexinV-FITC/propidium iodide staining based flow cytometry relative to control (reference value: 2.00 %); type: functional
[2] = Toxicity in BALB/c mouse xenografted with human MCF7 cells assessed as effect on spleen at 5 to 20 mg/kg, […] every other day measured after 14 days by hematoxylin and eosin staining based analysis; type: organism-based; conditions: in vivo, 336 h, dose 5-20 mg/kg, time 14 day

**Q.** For `Cc1n[nH]c(C)c1Oc1c(O)cc(O)c2c(=O)cc(-c3ccc(N4CCN(c5ccccn5)CC4)cc3)oc12`, which Activity [1] is on record?
**A.** Its Activity is 14.46%.

**Q.** And the Activity [2]?
**A.** Its Activity is “Non-Toxic”.
